According to patent publication US4199579A, “Carbamates of 2-haloergolines and 2-haloergolenes and process for the preparation thereof” (priority 1975, dated 1980):
Converted amounts (≈) assume the structure as drawn. Where a name gives a salt, the structure may show the parent alone. Read-outs that look alike come from different tables or passages of the source.

Assays:
[1] = tested on: alpha-adrenergic receptors; assay: Antiadrenalic (antiadrenergic) activity in vitro (a): antagonism of the spasmogenic effect of adrenaline on the seminal vesicle; assay type: cell-based, guinea pig
From the text: More particularly the novel compounds display a vasodilatory activity on the peripheral circulatory system, an hypotensive activity and a spasmolytic effect on the gastrointestinal smooth muscles or a blocking activity towards the alpha-adrenergic receptors, both in "vitro" and in "vivo".
(a) J. Brugger, Helv. Physiol. Pharmacol. Acta 3, 117 (1945)
The product is antagonizing the spasmogenic effect of the adrenaline on the seminal vesicle of guinea pig at concentrations of between 0.1 and 10 pg/ml, as well as the vaso- constricting effect of the noradrenaline on the isolated and perfused caudal arteria of rat, at dosages of between 1 and 10 μg total. Furthermore it antagonizes the contracturing effect of adrenaline and noradrenaline on the "vas deferens" of guinea pig and rat, at concentrations of 0.1 to 10 ng/ml.

[2] = tested on: alpha-adrenergic receptors; assay: Antiadrenalic activity in vivo (b): protection of rats from the lethal effect of adrenaline; set-up: species or system rat; details: for Antiadrenalic activity (b) vivo ED50: Table 2; for ED50 protecting rats from the lethal effect of adrenaline / activity higher than that of nicergoline: rat
[3] = tested on: isolated ileum of guinea pig; assay: AntiBaCl2 activity in vitro (c): antagonism of the spasmogenic action of barium chloride on the isolated ileum; assay type: cell-based; details: Cavia porcellus, read-out: AntiBaCl2 (c) vitro EC50
Method: (c) Magnus, Pflugers Arch.Ges.Physiol. 102, 123 (1904)
The substance antagonizes the spasmogenic action of the barium chloride on the isolated ileum of guinea pig at dosages of between 1 and 5 μg/ml. […] On the isolated caudal arteria of rat, the compound II inhibits the vaso-constricting effect as caused by the perfusion with hyperpotassium Ringer's solution.

Acute toxicity in mice = assay type: in vivo, mouse; details: mouse, in vivo, mouse
From the text: (§1) |Toxicity LD50 mice orally

Anorexia = assay: Anorexia; assay type: in vivo; details: po; orally
mice = assay: Acute toxicity in mice; assay type: in vivo, mouse; details: acute toxicity
From the text: as §1

ptosis from reserpine = assay: Antagonism to ptosis from reserpine; assay type: in vivo; details: po, read-out: Antagonism to ptosis from reserpine ED100
Anti-Parkinson activity = assay: Anti-Parkinson activity; assay type: in vivo; details: po; orally
[4] = tested on: alpha-adrenergic receptors; assay: Protection of mice from the lethal effect of adrenaline; assay type: in vivo; details: mouse
anaesthetized cat = assay: Arterial pressure in the anaesthetized cat; assay type: in vivo; details: Felis catus, iv, e.v., read-out: dosage from which arterial pressure is reduced
Method: (§2) In the anaesthetized cat and rat, the compound causes the arterial pressure to be reduced, starting from dosages of 50 and 30 μg/kg e.v. respectively. In the "pithed" rat the compound, when intravenously administered, antagonizes the hypertensive effect of the adrenaline (ED-50 46 mg/kg).

anaesthetized rat = assay: Arterial pressure in the anaesthetized rat; assay type: in vivo; details: iv, e.v., read-out: dosage from which arterial pressure is reduced
Method: as §2

"pithed" rat = assay: Antagonism of the hypertensive effect of adrenaline in the pithed rat; assay type: in vivo; details: iv, intravenously, read-out: ED-50 antagonizing the hypertensive effect of adrenaline
Method: as §2

acetylcholine = assay: Anti-acetylcholinic activity in vitro; assay type: cell-based; details: ratio to alpha-blocking concentration
histamine = assay: Anti-histaminic activity in vitro; assay type: cell-based; details: ratio to alpha-blocking concentration
serotonin = assay: Anti-serotoninic activity in vitro; assay type: cell-based; details: ratio to alpha-blocking concentration
Beagle dogs = assay: 7-month oral administration to Beagle dogs; assay type: in vivo, dog; details: 7 months, about 8 mg/kg per oral route
[5] = tested on: central nervous system (CNS); assay: CNS behaviour tests (swimming of the rat, reserpine ptosis, tetrabenazine catatonia, motility and exploration, behaviour); assay type: in vivo, rat; mouse; rabbit; dog
From the text: The compound belongs to the class of the ergolene derivatives in which substances are found which cause stimulating effects on the central nervous system (CNS); several behaviour tests have been carried out on animals, in order to assess a possible exciting and hallucinogen action.

Antidepressant activity = assay: Antidepressant activity; assay type: in vivo; details: route not given
From the text: (§3) Coming now to examining the anti-asthmatic pharmaceutical compositions it has been ascertained that the compound described as D-2-bromo-6-methyl-8beta-(morpholinocarbolynoxymethyl)-ergoline, corresponding to the formula (4) is endowed with quite special [drawing 81] which render it particularly recommendable for the therapy of asthma. The compound of the formula (4) has the empirical formula C21 H26 N3 O3 Br and a mol. wt. of 448.38. It gives, with mineral and organic acid of nontoxic and pharmacologically acceptable nature, a number of salt. These are soluble in water as well as in the physiological solutions. Such are for example the maleate C25 H30 N3 O7 Br, m.p. 213° C.-216° C., or the methanesulfonate C22 H30 N3 O6 BrS, m.p. 265° C.-266° C. and can be prepared according to the conventional methods by treating the compound (4) with the equivalent quantities of the acid in an aqueous medium or in appropriate organic solvents and their mixtures such as the alcohols, the ethers, the lower aliphatic ketones and others, taken individually or in appropriate mixtures with each other as will be detailed in the Examples hereinafter. The pharmacological activity of the compound of formula (4) is unfolded in appropriate assays, carried out on the test animals and is especially conspicuous in the following test runs: […]

[6] = target: alpha-adrenergic receptors; details: in vitro; comparison compound, reference (d) or (e); cited from earlier work
[7] = tested on: alpha-adrenergic receptors; details: e.v.; comparison compound, reference (e); cited from earlier work
Myorelaxing activity = assay: Myorelaxing activity; assay type: in vivo; details: route not given
From the text: as §3

[8] = iv, e.v., Table 2, read-out: DL50 e.v. in the mouse

Compound | Antiadrenalic activity (a) vitro EC50 [1] | Antiadrenalic activity (b) vivo ED50 ([2]; e.v.) | EC50 [3] | LD50 (Acute toxicity in mice; [8]) | further results
CCN(CC)C(=O)OC[C@@H]1C[C@@H]2c3cccc4[nH]c(Br)c(c34)C[C@H]2N(C)C1 [Example 6, D-2-bromo-6-methyl-8beta-(N,N-diethylcarbamoyloxymethyl)-ergoline] | 4.7 ng/mL | 0.0803 mg/kg | 3.8 µg/mL (≈ 8.75 µM) | 13.7 mg/kg | 
CC(N)Cc1ccccc1 (centres unmarked) [amphetamine, reference compound] |  |  |  |  | ED100 (Anorexia): 5 mg/kg
CN1C[C@H](COC(=O)N2CCCCCC2)C[C@@H]2c3cccc4c3c(c(Br)n4C)C[C@H]21 [Example 14, D-2-bromo-1,6-dimethyl-8beta-(perhydroazepinylcarbonyloxymethyl) ergoline] |  |  |  |  | LD50 (Acute toxicity in mice; iv, mice, intravenously, compound (3), read-out: Toxicity LD50 mice, intravenously): 65 to 83 mg/kg; LD50 (Acute toxicity in mice; po, mice, orally, compound (3), read-out: Toxicity LD50 mice, orally): 600 mg/kg; acute toxicity in words (mice): well tolerated and poorly toxic; ED100 (ptosis from reserpine): 0.01 mg/kg; ED100 (Anorexia): 5 mg/kg; ED100 (Anti-Parkinson activity): 20 mg/kg
CN1C[C@H](COC(=O)N2CCCCCC2)C[C@@H]2c3cccc4[nH]c(Br)c(c34)C[C@H]21 [Example 2, D-2-bromo-6-methyl-8beta-(perhydroazepinylcarbonyloxymethyl)-ergoline] | 0.0017 ng/mL | 0.008 mg/kg | 3.1 µg/mL (≈ 6.73 µM) | 39.4 mg/kg | ED50 protecting rats from the lethal effect of adrenaline ([2]; e.v.): 0.008 mg/kg; activity higher than that of nicergoline ([2]; intravenously): 2.5 times; activity higher than that of nicergoline ([2]; orally): 24 times; ED50 protecting rats from the lethal effect of adrenaline ([2]; per os): 0.37 mg/kg; ED50 protecting mice from the lethal effect of adrenaline ([4]; e.v.): 0.051 mg/kg; ED50 protecting mice from the lethal effect of adrenaline ([4]; per os): 0.61 mg/kg; minimal effective dose (anaesthetized cat): ≥ 0.05 mg/kg; minimal effective dose (anaesthetized rat): ≥ 0.03 mg/kg; ED50 ("pithed" rat): 0.046 mg/kg; anti-acetylcholinic activity: concentration higher than that showing the alpha-blocking effect (acetylcholine): 4500 times; anti-histaminic activity: concentration higher than that showing the alpha-blocking effect (histamine): 800 times; anti-serotoninic activity: concentration higher than that showing the alpha-blocking effect (serotonin): 200 times; macroscopic or microscopic alterations of the main organs (Beagle dogs): did not cause macroscopic or microscopic alterations; modifications of the weight, hematological and hematochemical parameters (Beagle dogs): did not cause modifications; ECG modifications ([5]; in vivo): ECG modifications of sedative type were always detected; exciting property in behaviour tests ([5]; rat, mice, rabbit, dog): no evidence were found of any exciting property
CN(C)CCCN1c2ccccc2CCc2ccccc21 [imipramine, reference compound] |  |  |  |  | ED100 (ptosis from reserpine; orally): 25 mg/kg; ED100 (Antidepressant activity): 25 mg/kg
CN1C[C@H](COC(=O)N2CCC2)C[C@@H]2c3cccc4[nH]c(Br)c(c34)C[C@H]21 [Example 7, D-2-bromo-6-methyl-8beta-(azetidinylcarbonyloxymethyl)-ergoline] | 5 ng/mL | 0.05 mg/kg | 1.4 µg/mL (≈ 3.35 µM) | 8.7 mg/kg | 
dihydroergotoxine |  |  |  |  | Antiadrenalic activity (a) vitro EC50 [6]: 0.078 µg/mL; Antiadrenalic activity (b) vivo ED50 [7]: 0.05 mg/kg
CN1C[C@H](COC(=O)N2CCCC2)C[C@@H]2c3cccc4[nH]c(Br)c(c34)C[C@H]21 [Example 10, D-2-bromo-6-methyl-8beta-(pyrrolydycarbonyloxy-methyl)-ergoline maleate] | 2 ng/mL | 0.0155 mg/kg | 4 µg/mL | 15 mg/kg | 
CN(C)C(=O)OC[C@@H]1C[C@@H]2c3cccc4[nH]c(Br)c(c34)C[C@H]2N(C)C1 [Example 4, D-2-bromo-6-methyl-8beta-(N,N-dimethylcarbamoyloxymethyl)-ergoline] | 10 ng/mL | 0.0112 mg/kg | 10 µg/mL (≈ 24.6 µM) | 7.1 mg/kg | 
N[C@@H](Cc1ccc(O)c(O)c1)C(=O)O [L-dopa, reference compound] |  |  |  |  | ED100 (Anti-Parkinson activity): 300 mg/kg
CO[C@]12C[C@@H](COC(=O)c3cncc(Br)c3)CN(C)[C@@H]1Cc1cn(C)c3cccc2c13 [nicergoline, reference compound] |  |  |  | 74.3 mg/kg | EC50 ([3]; in vitro): 2.1 µg/mL (≈ 4.34 µM); Antiadrenalic activity (a) vitro EC50 [6]: 0.007 µg/mL; Antiadrenalic activity (b) vivo ED50 [7]: 0.02 mg/kg
CN1C[C@H](COC(=O)N2CC3CCC(CC3)C2)C[C@@H]2c3cccc4[nH]c(Br)c(c34)C[C@H]21 [Example 20, D-2-bromo-6-methyl-8beta-(3-azabicyclo [3,2, 2]-nonanylcarbonyloxymethyl)-ergoline] | 375 ng/mL | 0.198 mg/kg | > 100 µg/mL | 50 mg/kg | 
CN1CCN(C(=O)OC[C@@H]2C[C@@H]3c4cccc5[nH]c(Br)c(c45)C[C@H]3N(C)C2)CC1 [Example 18, D-2-bromo-6-methyl-8beta-(4,methylpiperazinyl-carbonyloxymethyl)-ergoline] | 50 ng/mL | > 0.32 mg/kg | > 100 µg/mL | 27.3 mg/kg | 
CCC1(c2ccccc2)C(=O)NC(=O)NC1=O [phenobarbital, reference compound] |  |  |  |  | ED100 (Myorelaxing activity): 100 mg/kg
CN1C[C@H](COC(=O)N2CCCCC2)C[C@@H]2c3cccc4[nH]c(Br)c(c34)C[C@H]21 [Example 12, D-2-bromo-6-methyl-8beta-(piperidinocarbonyloxymethyl)-ergoline] | 3.7 ng/mL | 0.0202 mg/kg | 3.5 µg/mL (≈ 7.84 µM) | 50 mg/kg | 
